Several values for one entry are separate records, joined by “and”; a condition that tells them apart may be missing. Equal entries are not always repeated.

For data set [1] the following is noted: 2-8° C.
The target in the next data set is CD4 (Homo sapiens, UniProt P01730). To be noted: T cell co-stimulator molecule; cited from earlier work.
A further data set concerns Dendritic Cells. In kind it is cell-based, Balb/c mice.
A further data set concerns CIA model of RA. The settings on record: mouse, in vivo; cited from earlier work.
The subject of another data set is BALB/c and C57BL6 mice. To be noted: mouse, in vivo.

With “(amino)-DGQEEKAGVVSTGLIGGG-(amide) (H-DGQEEKAGVVSTGLIGGG-NH2) [CEL-1000]”, the “stability of formulation (time extremely stable)” value in data set [1] is listed as “over 2 years”. Moreover, in the data set with CD4, the “binding to CD4” value is on record as “shown to bind to CD4”.

With “DLLKNGERIEKVEGGGTGGKPGIAGFKGEQGPKGEP [CEL-2000]”, the “IL-12p70 Conc., R&D Systems (IL-12p70), Avg” value in the data set on Dendritic Cells is 67.9 pg/mL and 35.4 pg/mL and 58.2 pg/mL. Further, in the data set with CIA model of RA, the disease suppression result is given as “suppress disease over a 90 day period”; the “efficacy compared with Enbrel” value is listed as “more effective than Enbrel”; the safety and tolerability result is “safe and well-tolerated”; the “serum IL-1 change” value was “reduced”. Further, in the data set with CIA model of RA, the “serum IL-10 change” value is listed as “increased”, the “serum IL-12p40 change” value is reported as “decrease”, the “serum IL-12p70 change” value is recorded as “increased” and the “serum MCP-1 change” value was “reduced”. For the same substance, the “serum TNF-α change” value with CIA model of RA is “reduced”.

For the substance DLLKNGERIEKVEGGGNDATYQRTRALVRTG [J-NP], in the data set on BALB/c and C57BL6 mice, the “serum IFN-y, secondary response (FIG. 2)” value is given as “sustained levels”; the “serum IFN-γ response, normalized to adjuvant control (FIG. 1)” value is “higher amounts”; the “serum IL-10, secondary response (FIG. 2)” value is listed as “sustained levels”; the “serum IL-12 p40p70, secondary response (FIG. 2)” value is “sustained levels”. Moreover, in the data set with BALB/c and C57BL6 mice, the “serum IL-12p40 response, normalized to adjuvant control (FIG. 1)” value is “higher for C57BL6 mice”; the “serum IL-12p70, secondary response (FIG. 2)” value is recorded as “sustained levels”; the “serum MCP-1 response, normalized to adjuvant control (FIG. 1)” value is reported as “higher amounts”.

As to “DLLKNGERIEKVEGGGGLFGAIAGFIEGG [J-HA2 core 1]”, the “primary response: antibody production (day 24 or 38) or cytokine responses (day 3, 10 and 24)” value in the data set with BALB/c and C57BL6 mice was “very little response”.

In the case of “DLLKNGERIEKVEGGGSLLTEVETPIRNEWGCRCNDSSD [J-M2e]”, in the data set on BALB/c and C57BL6 mice, the “serum IFN-y, secondary response (FIG. 2)” value is “increase”; the “serum IFN-γ response, normalized to adjuvant control (FIG. 1)” value is given as “higher amounts”; the “serum IL-10, secondary response (FIG. 2)” value is “increase”; the “serum IL-12 p40p70, secondary response (FIG. 2)” value is reported as “increase”. In the data set on BALB/c and C57BL6 mice, the “serum IL-12p40 response, normalized to adjuvant control (FIG. 1)” value is “higher for C57BL6 mice”; the “serum IL-12p70, secondary response (FIG. 2)” value is recorded as “increase”; the “serum MCP-1 response, normalized to adjuvant control (FIG. 1)” value is recorded as “higher amounts”.

In the case of “DLLKNGERIEKVEGGGYSVHQRIDVKDTKEALEKIEEEQNKSKKKA [JH]”, in the data set with Dendritic Cells, the “TNF-a Conc., R&D Systems TNF-a, Avg” value is 905.7 pg/mL and 685.0 pg/mL and 830.9 pg/mL; the “TNF-a Conc., RayBio TNF-a, Avg” value amounted to 29.6 pg/mL.

With lipopolysaccharide [LPS], in the data set with Dendritic Cells, the “IL-12p70 Conc., R&D Systems (IL-12p70), Avg” value is 57.0 pg/mL and 78.5 pg/mL and 62.5 pg/mL; the “TNF-a Conc., R&D Systems TNF-a, Avg” value was 5229.9 pg/mL and 3313.2 pg/mL and 3083.0 pg/mL; the “TNF-a Conc., RayBio TNF-a, Avg” value is 3206.0 pg/mL and 2142.3 pg/mL and 2028.6 pg/mL.

“DLLKNGERIEKVEGGGLKSTQNAIDEITNKVN [J-HA2 core 2]”: in the data set on BALB/c and C57BL6 mice, the “primary response: antibody production (day 24 or 38) or cytokine responses (day 3, 10 and 24)” value was “very little response”.

The record behind these values is US10238747B2 (priority 2010, dated 2019).
